In ChEMBL document CHEMBL4406869, “Benzo[b]thiophene-thiazoles as potent anti-Toxoplasma gondii agents: Design, synthesis, tyrosinase/tyrosine hydroxylase inhibitors, molecular docking study, and antioxidant activity” (Eur J Med Chem, 2019):
Each block holds one compound with its values, some of them ahead of it.

What was measured:
Toxoplasma gondii [1] = test: Antiparasitic activity against Toxoplasma gondii ME49 tachyzoites infected in human Hs27 cells assessed as inhibition of parasitic growth preincubated for 24 hrs followed by [5,6-3H]uracil addition and measured after 72 hrs by liquid scintillation counting analysis; format: functional, organism-based
[2] = Selectivity ratio of CC30 for cytotoxicity against mouse L929 cells to IC50 for antiparasitic activity against Toxoplasma gondii Me49 infected in human Hs27 cells; format: toxicity, cell-based
[3] = Selectivity ratio of CC30 for cytotoxicity against mouse L929 cells to IC50 for antiparasitic activity against Toxoplasma gondii RH infected in human Hs27 cells; format: toxicity, cell-based
L929 = test: Cytotoxicity against mouse L929 cells assessed as reduction in cell viability after 24 hrs by MTT assay; format: cell-based; settings: l929, 24 h
Tyrosinase = biological target: T1, Tyrosinase (Agaricus bisporus, UniProt O42713); test: Inhibition of mushroom tyrosinase using L-dopa as substrate by spectrophotometric method
T1 sequence (O42713 whole entry): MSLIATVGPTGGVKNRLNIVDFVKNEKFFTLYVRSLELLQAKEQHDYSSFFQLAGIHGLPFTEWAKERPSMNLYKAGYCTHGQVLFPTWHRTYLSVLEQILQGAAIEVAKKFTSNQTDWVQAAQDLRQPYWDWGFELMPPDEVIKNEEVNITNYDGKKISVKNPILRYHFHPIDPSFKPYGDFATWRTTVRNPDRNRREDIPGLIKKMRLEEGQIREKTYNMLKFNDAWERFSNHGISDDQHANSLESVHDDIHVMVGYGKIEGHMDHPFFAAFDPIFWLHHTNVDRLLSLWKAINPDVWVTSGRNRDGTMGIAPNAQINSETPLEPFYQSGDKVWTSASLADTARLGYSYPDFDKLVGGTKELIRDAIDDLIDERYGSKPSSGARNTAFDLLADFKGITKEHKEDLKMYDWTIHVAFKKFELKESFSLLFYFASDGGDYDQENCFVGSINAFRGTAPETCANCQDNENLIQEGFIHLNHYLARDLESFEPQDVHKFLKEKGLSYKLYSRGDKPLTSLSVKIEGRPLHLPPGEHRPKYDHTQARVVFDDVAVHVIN

[4] = Antioxidant activity assessed as DPPH radical scavenging activity incubated for 30 mins under dark condition by Uv-vis spectrophotometric method; format: functional
[5] = Potency index, ratio of butylated hydroxytoluene IC50 to test compound IC50 for antioxidant activity assessed as DPPH radical scavenging activity; format: functional
Toxoplasma gondii [6] = test: Antiparasitic activity against Toxoplasma gondii RH tachyzoites infected in human Hs27 cells assessed as inhibition of parasitic growth preincubated for 24 hrs followed by [5,6-3H]uracil addition and measured after 72 hrs by liquid scintillation counting analysis; format: functional, organism-based
Toxoplasma gondii [7] = test: Antiparasitic activity against Toxoplasma gondii RH tachyzoites infected in human Hs27 cells assessed as reduction in parasite proliferation at 6.25 ug/mL preincubated for 24 hrs followed by [5,6-3H]uracil addition and measured after 72 hrs by liquid scintillation counting analysis relative to control; format: functional; design: scale not given: the % may be the effect or the level left
Toxoplasma gondii [8] = test: Antiparasitic activity against Toxoplasma gondii RH tachyzoites infected in human Hs27 cells assessed as reduction in parasite proliferation at 1.56 ug/mL preincubated for 24 hrs followed by [5,6-3H]uracil addition and measured after 72 hrs by liquid scintillation counting analysis relative to control; format: functional; design: scale not given: the % may be the effect or the level left
Toxoplasma gondii [9] = test: Antiparasitic activity against Toxoplasma gondii ME49 tachyzoites infected in human Hs27 cells assessed as reduction in parasite proliferation at 3.125 ug/mL preincubated for 24 hrs followed by [5,6-3H]uracil addition and measured after 72 hrs by liquid scintillation counting analysis relative to control; format: functional; design: scale not given: the % may be the effect or the level left
Toxoplasma gondii [10] = test: Antiparasitic activity against Toxoplasma gondii RH tachyzoites infected in human Hs27 cells assessed as reduction in parasite proliferation at 3.125 ug/mL preincubated for 24 hrs followed by [5,6-3H]uracil addition and measured after 72 hrs by liquid scintillation counting analysis relative to control; format: functional; design: scale not given: the % may be the effect or the level left
[11] = Cytotoxicity against mouse L929 cells assessed as cell viability at 400 ug/ml after 24 hrs by MTT assay relative to control; format: cell-based; settings: read-out: Activity
[12] = Cytotoxicity against mouse L929 cells assessed as cell viability at 100 ug/ml after 24 hrs by MTT assay relative to control; format: cell-based; settings: read-out: Activity
[13] = Cytotoxicity against mouse L929 cells assessed as cell viability at 3.125 ug/ml after 24 hrs by MTT assay relative to control; format: cell-based; settings: read-out: Activity
Toxoplasma gondii [14] = test: Antiparasitic activity against Toxoplasma gondii RH tachyzoites infected in human Hs27 cells assessed as reduction in parasite proliferation at 100 ug/mL preincubated for 24 hrs followed by [5,6-3H]uracil addition and measured after 72 hrs by liquid scintillation counting analysis relative to control; format: functional; design: scale not given: the % may be the effect or the level left
[15] = Cytotoxicity against mouse L929 cells assessed as cell viability at 25 ug/ml after 24 hrs by MTT assay relative to control; format: cell-based; settings: read-out: Activity
[16] = Cytotoxicity against mouse L929 cells assessed as cell viability at 0.78 ug/ml after 24 hrs by MTT assay relative to control; format: cell-based; settings: read-out: Activity
[17] = Cytotoxicity against mouse L929 cells assessed as cell viability at 50 ug/ml after 24 hrs by MTT assay relative to control; format: cell-based; settings: read-out: Activity
Toxoplasma gondii [18] = test: Antiparasitic activity against Toxoplasma gondii ME49 tachyzoites infected in human Hs27 cells assessed as reduction in parasite proliferation at 25 ug/mL preincubated for 24 hrs followed by [5,6-3H]uracil addition and measured after 72 hrs by liquid scintillation counting analysis relative to control; format: functional; design: scale not given: the % may be the effect or the level left
Toxoplasma gondii [19] = test: Antiparasitic activity against Toxoplasma gondii ME49 tachyzoites infected in human Hs27 cells assessed as reduction in parasite proliferation at 100 ug/mL preincubated for 24 hrs followed by [5,6-3H]uracil addition and measured after 72 hrs by liquid scintillation counting analysis relative to control; format: functional; design: scale not given: the % may be the effect or the level left
[20] = Cytotoxicity against mouse L929 cells assessed as cell viability at 200 ug/ml after 24 hrs by MTT assay relative to control; format: cell-based; settings: read-out: Activity
Toxoplasma gondii [21] = test: Antiparasitic activity against Toxoplasma gondii ME49 tachyzoites infected in human Hs27 cells assessed as reduction in parasite proliferation at 0.78 ug/mL preincubated for 24 hrs followed by [5,6-3H]uracil addition and measured after 72 hrs by liquid scintillation counting analysis relative to control; format: functional; design: scale not given: the % may be the effect or the level left
Toxoplasma gondii [22] = test: Antiparasitic activity against Toxoplasma gondii ME49 tachyzoites infected in human Hs27 cells assessed as reduction in parasite proliferation at 50 ug/mL preincubated for 24 hrs followed by [5,6-3H]uracil addition and measured after 72 hrs by liquid scintillation counting analysis relative to control; format: functional; design: scale not given: the % may be the effect or the level left
[23] = Cytotoxicity against mouse L929 cells assessed as cell viability at 12.5 ug/ml after 24 hrs by MTT assay relative to control; format: cell-based; settings: read-out: Activity
Toxoplasma gondii [24] = test: Antiparasitic activity against Toxoplasma gondii RH tachyzoites infected in human Hs27 cells assessed as reduction in parasite proliferation at 12.5 ug/mL preincubated for 24 hrs followed by [5,6-3H]uracil addition and measured after 72 hrs by liquid scintillation counting analysis relative to control; format: functional; design: scale not given: the % may be the effect or the level left
[25] = Cytotoxicity against mouse L929 cells assessed as cell viability at 6.25 ug/ml after 24 hrs by MTT assay relative to control; format: cell-based; settings: read-out: Activity
Toxoplasma gondii [26] = test: Antiparasitic activity against Toxoplasma gondii ME49 tachyzoites infected in human Hs27 cells assessed as reduction in parasite proliferation at 6.25 ug/mL preincubated for 24 hrs followed by [5,6-3H]uracil addition and measured after 72 hrs by liquid scintillation counting analysis relative to control; format: functional; design: scale not given: the % may be the effect or the level left
Toxoplasma gondii [27] = test: Antiparasitic activity against Toxoplasma gondii RH tachyzoites infected in human Hs27 cells assessed as reduction in parasite proliferation at 0.78 ug/mL preincubated for 24 hrs followed by [5,6-3H]uracil addition and measured after 72 hrs by liquid scintillation counting analysis relative to control; format: functional; design: scale not given: the % may be the effect or the level left
Toxoplasma gondii [28] = test: Antiparasitic activity against Toxoplasma gondii ME49 tachyzoites infected in human Hs27 cells assessed as reduction in parasite proliferation at 1.56 ug/mL preincubated for 24 hrs followed by [5,6-3H]uracil addition and measured after 72 hrs by liquid scintillation counting analysis relative to control; format: functional; design: scale not given: the % may be the effect or the level left
Toxoplasma gondii [29] = test: Antiparasitic activity against Toxoplasma gondii RH tachyzoites infected in human Hs27 cells assessed as reduction in parasite proliferation at 25 ug/mL preincubated for 24 hrs followed by [5,6-3H]uracil addition and measured after 72 hrs by liquid scintillation counting analysis relative to control; format: functional; design: scale not given: the % may be the effect or the level left
[30] = Cytotoxicity against mouse L929 cells assessed as cell viability at 1.56 ug/ml after 24 hrs by MTT assay relative to control; format: cell-based; settings: read-out: Activity
Toxoplasma gondii [31] = test: Antiparasitic activity against Toxoplasma gondii RH tachyzoites infected in human Hs27 cells assessed as reduction in parasite proliferation at 0.39 ug/mL preincubated for 24 hrs followed by [5,6-3H]uracil addition and measured after 72 hrs by liquid scintillation counting analysis relative to control; format: functional; design: scale not given: the % may be the effect or the level left
Toxoplasma gondii [32] = test: Antiparasitic activity against Toxoplasma gondii RH tachyzoites infected in human Hs27 cells assessed as reduction in parasite proliferation at 50 ug/mL preincubated for 24 hrs followed by [5,6-3H]uracil addition and measured after 72 hrs by liquid scintillation counting analysis relative to control; format: functional; design: scale not given: the % may be the effect or the level left
Toxoplasma gondii [33] = test: Antiparasitic activity against Toxoplasma gondii ME49 tachyzoites infected in human Hs27 cells assessed as reduction in parasite proliferation at 12.5 ug/mL preincubated for 24 hrs followed by [5,6-3H]uracil addition and measured after 72 hrs by liquid scintillation counting analysis relative to control; format: functional; design: scale not given: the % may be the effect or the level left

SMILES: Nc1ccc(S(=O)(=O)Nc2ncccn2)cc1 [SULFADIAZINE]
- IC50 (Toxoplasma gondii [1]): 13000 µM
- selectivity ratio [2]: 0.39
- selectivity ratio [3]: 0.46
- CC30 (L929): >= 5000 uM

SMILES: Ic1ccc(-c2csc(N/N=C/c3cc4ccccc4s3)n2)cc1
- IC50 (Tyrosinase): 431 µM
- CC30 (L929): 946.2 µM

SMILES: O=c1oc2ccccc2cc1-c1csc(N/N=C/c2cc3ccccc3s2)n1
- IC50 [4]: 15.9 µM
- Ratio IC50 [5]: 10

SMILES: Cc1cc(C(C)(C)C)c(O)c(C(C)(C)C)c1 [BUTYLATED HYDROXYTOLUENE]
- IC50 [4]: 180 µM

SMILES: COc1cc(Cc2cnc(N)nc2N)cc(OC)c1OC [TRIMETHOPRIM]
- IC50 (Toxoplasma gondii [1]): 39.2 µM
- selectivity ratio [2]: 1.4
- selectivity ratio [3]: 1.32
- IC50 (Toxoplasma gondii [6]): 41.8 µM
- CC30 (L929): 55.11 µM

SMILES: C(=N\Nc1nc(C23CC4CC(CC(C4)C2)C3)cs1)/c1cc2ccccc2s1
- Activity (Toxoplasma gondii [7]): 83.32%
- Activity (Toxoplasma gondii [8]): 101.85%
- Activity (Toxoplasma gondii [9]): 25.5%
- Activity (Toxoplasma gondii [10]): 90.86%
- viability at 24 h, 400 ug/ml [11]: 76.8%
- IC50 (Toxoplasma gondii [1]): 8.74 µM
- viability at 24 h, 100 ug/ml [12]: 89%
- selectivity ratio [2]: 153
- IC50 [4]: 15.5 µM
- viability at 24 h, 3.125 ug/ml [13]: 104%
- Activity (Toxoplasma gondii [14]): 6.32%
- viability at 24 h, 25 ug/ml [15]: 98.3%
- IC50 (Tyrosinase): 329 µM
- viability at 24 h, 0.78 ug/ml [16]: 107%
- viability at 24 h, 50 ug/ml [17]: 90.7%
- Activity (Toxoplasma gondii [18]): 5.61%
- Activity (Toxoplasma gondii [19]): 0.53%
- viability at 24 h, 200 ug/ml [20]: 81.8%
- Activity (Toxoplasma gondii [21]): 101.96%
- Activity (Toxoplasma gondii [22]): 1.17%
- selectivity ratio [3]: 25.7
- viability at 24 h, 12.5 ug/ml [23]: 96.5%
- Activity (Toxoplasma gondii [24]): 58.29%
- viability at 24 h, 6.25 ug/ml [25]: 101%
- Activity (Toxoplasma gondii [26]): 9.6%
- Activity (Toxoplasma gondii [27]): 92.05%
- Activity (Toxoplasma gondii [28]): 49.76%
- Activity (Toxoplasma gondii [29]): 46.12%
- IC50 (Toxoplasma gondii [6]): 51.9 µM
- viability at 24 h, 1.56 ug/ml [30]: 105%
- Activity (Toxoplasma gondii [31]): 1.24%
- CC30 (L929): 1333.46 µM
- Activity (Toxoplasma gondii [32]): 28.7%
- Activity (Toxoplasma gondii [33]): 7.85%

Continued, in another order:

- IC50 (Tyrosinase): 466 µM
SMILES: Cc1ccc(-c2csc(N/N=C/c3cc4ccccc4s3)n2)cc1
- CC30 (L929): 884.28 µM

- IC50 (Tyrosinase): 396 µM
SMILES: Fc1ccc(-c2csc(N/N=C/c3cc4ccccc4s3)n2)cc1
- CC30 (L929): 1385.75 µM

- IC50 (Tyrosinase): 433 µM
SMILES: Brc1ccc(-c2csc(N/N=C/c3cc4ccccc4s3)n2)cc1
- CC30 (L929): 283.56 µM

- IC50 (Tyrosinase): 390 µM
SMILES: Clc1ccc(-c2csc(N/N=C/c3cc4ccccc4s3)n2)cc1
- CC30 (L929): 1255.05 µM
